Where a name gives a salt, the structure may show the parent alone.
System: morning sickness
Test: Doctor survey: composition compared with other morning sickness remedies tried during the same pregnancy
Type: in vivo, pregnant patients
Conditions: for Patients' preference, composition versus the named remedy: overall, in words
Excerpt: Doctors across the United States were each sent four bottles of the composition described herein, and were invited to allow their pregnant patients to try the composition as a remedy for morning sickness. The same doctors were also sent a survey inquiring about the patients'experience with the composition, the other remedies used, and how the composition disclosed herein compared with the other remedies.
The survey also asked about other known morning sickness remedies. […] Some of the other remedies included Reglan® (metochlopramide, commercially available from Robins Co., Richmond, Va.), Emetrol® (dextrose, levulose, phosphoric acid, commercially available from Pfizer, Inc., New York, N.Y.), Mylanta® (calcium carbonate, magnesium hydroxide, commercially available from Johnson & Johnson, Merck Consumer Pharmaceuticals Co., Fort Washington, Pa.), Premesis Rx® (calcium carbonate, vitamin B12, folic acid, vitamin B6, commercially available from KV Pharmaceutical Co., St. Louis, Mo.), Compazine® (prochlorperazine, commercially available from SmithKline Beecham, Philadelphia, Pa.), and meclizine (commercially available under the tradename Antivert® from Pfizer, Inc., New York, N.Y.).
Regardless of whether they tried one or more remedies besides the disclosed composition, each doctor was asked, for each patient: did the composition work 1) better than other products or combinations, 2) better than some, but not as well as others, or 3) not as well as other products or combinations.
Another question in the survey asked the doctors what products each patient took besides the composition, and then whether the composition worked 1) better than other products or combinations, 2) better than some, but not as well as others, or 3) not as well as other products or combinations.

[1] = composition versus the named remedy, the two taken alone or with other remedies
[2] = composition versus the named remedy, the two taken alone or with other remedies, hydrochloride
[3] = patients who tried only the named remedy or combination besides the composition

| SMILES | Percent of Patients for whom the Composition Did Not Work as Well [1] | Percent of Patients for whom the Composition worked Better [1] | Patients' preference, composition versus the named remedy | Patients for whom the composition definitely worked better than the remedy/remedies tried in addition [3] | also measured |
| --- | --- | --- | --- | --- | --- |
| Cc1cccc(CN2CCN(C(c3ccccc3)c3ccc(Cl)cc3)CC2)c1 (stereo not drawn) [Meclizine ®, meclizine] | 0% | 100% | – | – | – |
| CC(CN1c2ccccc2Sc2ccccc21)N(C)C (stereo not drawn) [Phenergan ®, promethazine hydrochloride] | – | – | prefer | better for 4 patients | Percent of Patients for whom the Composition Did Not Work as Well [2]: 32%; Percent of Patients for whom the Composition worked Better [2]: 40% |
| CCN(CC)CCNC(=O)c1cc(Cl)c(N)cc1OC [Reglan ®, metochlopramide] | 60% | 0% | – | – | – |
| Cc1nccn1CC1CCc2c(c3ccccc3n2C)C1=O (stereo not drawn) [Zofran ®, ondansetron hydrochloride] | – | 36% | prefer | better for 5 patients | Percent of Patients for whom the Composition Did Not Work as Well [2]: 42%; Percent of Patients for whom the Composition Did Not Work as Well (composition versus the named remedy, the two taken alone or with other remedies, listed as Zofran®, hydrochloride): at least 36% |
| Cc1ncc(CO)c(CO)c1O.Cl [Vitamin B6, pyridoxine hydrochloride] | – | – | like the composition better | – | Patients for whom the composition definitely worked better than the remedy/remedies tried in addition (in vivo): better for 7 patients; Percent of Patients for whom the Composition Did Not Work as Well (in vivo): 11% |
| CN1CCN(CCCN2c3ccccc3Sc3ccc(Cl)cc32)CC1 [Compazine ®, prochlorperazine] | 29% | 43% | – | better for 3 patients | – |
| CC(CN1c2ccccc2Sc2ccccc21)N(C)C (stereo not drawn) [Promethazine ®, Promethazine] | 100% | 0% | – | – | – |

From patent US20070048367A1, “Herbal composition for treating morning sickness” (MOM Enterprises, Inc., priority 2005, published 2007)
